Measurements from patent publication US11674959B2, “Methods for identifying and preparing pharmaceutical agents for activating Tie1 and/or Tie2 receptors” (The Johns Hopkins University, priority 2017, dated 2023).

Experiments:
[1] = test system: Erk1/2; assay: Western blot of MEC lysates: Erk1/2 phosphorylation; format: cell-based, human; details: all tested conditions
Protocol: To investigate the effects of the integrin inhibitor AXT107 on Tie2 signaling, confluent monolayers of microvascular endothelial cells (MECs) on fibronectin-coated dishes were treated with various concentrations of AXT107 followed by exposure to the Tie2 ligands Ang1 or Ang2.
Human dermal microvascular endothelial cells (Lonza) were maintained at 37° C. and 5% CO2 in EBM-2MV medium (Lonza) and used between passages two through seven. Where applicable, cells were serum starved in EBM-2 medium (Lonza) with no supplements. For FITC-Dextran permeability assays phenol red-free media were used to avoid auto-fluorescence. […]
(§1) For Ang1/2 signaling investigations, cell culture dishes (10 cm diameter) were coated with 5 μg/ml fibronectin (FN1; Sigma-Aldrich, St. Louis, Mo.) for two hours at 37° C. […] Specific proteins were identified by Western blot, using the following primary antibodies: Cell Signaling—phospho-Tie2 (Y992) (Cat #: 4221), Tie2 (Cat #: 7403), phospho-Stat3 (Y705) (Cat #: 4113), Stat3 (Cat #: 4904), phospho-Akt (S473) (Cat #: 4058), Akt (Cat #: 9272), phospho-p44/42 MAPK (T202/Y204) (Cat #: 4370), p44/42 MAPK (Cat #: 4695); BD Transduction Laboratories—β1 integrin (Cat #: 610467); Millipore—α5 integrin (Cat #: AB1928) and detected with HRP-conjugated goat anti-rabbit and sheep anti-mouse secondary antibodies (GE healthcare).

[2] = test system: MEC monolayers; assay: FITC Transwell permeability assay; format: cell-based, human
Protocol: The integrity of these junctions is also important for the regulation of monolayer permeability by controlling the size of intercellular openings. The effect of the AXT107 on EC permeability was further investigated by the transendothelial diffusion of FITC-labeled dextran across MEC monolayers seeded onto permeable Transwell® substrates.
Human dermal microvascular endothelial cells (Lonza) were maintained at 37° C. and 5% CO2 in EBM-2MV medium (Lonza) and used between passages two through seven. Where applicable, cells were serum starved in EBM-2 medium (Lonza) with no supplements. For FITC-Dextran permeability assays phenol red-free media were used to avoid auto-fluorescence. AXT107 were manufactured at New England Peptide by […], lyophilized, and dissolved in 100% DMSO.
Transwell, twenty-four-well inserts (Corning) were coated with 7.5 μg/cm^2 FN1 for two hours at 37° C., aspirated, and then dried for thirty minutes at room temperature. Wells were then seeded with 7.5×10^4 MECs in 100 μl of EBM-2 media (without phenol red) and allowed to settle for thirty minutes at room temperature. 1 ml of EGM-2 media was then added to the bottom chamber and an additional 200 μl to the top chamber. The plate was incubated for twenty-four hours at 37° C. after which the media was aspirated and an additional 7.5×10^4 MECs were plated in each well as described above. After forty-eight hours at 37° C., the media was aspirated from both chambers and the cells were washed twice in dPBS containing Ca^2+ and Mg^2+, once with EBM-2 media (without phenol red) and serum starved in EBM-2 media applied to both chambers for two hours at 37° C. After this incubation, 100 μM AXT107 or an equivalent amount of DMSO vehicle was added and incubated for an additional ninety minutes. In the top chamber, the cells were then treated with 200 ng/ml Ang2, 100 ng/ml VEGFA, both, or PBS control and in the bottom chamber, the cells were then treated with 25 μg/ml FITC-Dextran (40 kDa MW). AXT107 was also added in both chambers to maintain a concentration of 100 μM. After three hours, 10 μl was removed from the top chamber of each well and mixed with 90 μl of water in a clear bottom, 96-well plate. Fluorescence values for each sample were calculated using a Perkin Elmer plate reader.

[3] = test system: Tie2; assay: Tie2 activation in vivo, retinopathy of prematurity (ROP) mouse model
From the text: To investigate the effects of AXT107 on Tie2 activation in vivo, retinopathy of prematurity (ROP) mouse model was used. In this system, P7 pups are placed in 75% O2 for five days, resulting in a loss of retinal capillary density from hyperoxia and a rapid induction of neovascularization upon the pup's return to normoxic conditions. […] Increased levels of Ang2 in the vitreous contribute to vessel leakage and macular edema in various retinopathies.

[4] = test system: myosin light chain 2 (MLC2); assay: Western blot of MEC lysates for pMLC2; format: cell-based, human; details: AXT107 and 200 ng/ml Ang2
Protocol: Phosphorylation of Tie2 is known to stimulate the Rap1-GTPase pathway, leading to a reduction in the phosphorylation of the downstream motor protein myosin light chain 2 (MLC2) associated with actin rearrangement.
as §1, with “hours at 37° C. The FN1 solution was then removed by aspiration and 5×10^6 microvascular endothelial cells (MECs; Lonza, Walkersville, Md.) were plated in EGM-2MV media (Lonza) and cultured for forty-eight hours at 37° C. The cells were then serum starved for sixteen hours in serum-free EGM-2 base media (Lonza). AXT107 (0-100 μM, as indicated) was subsequently added to each culture and incubated for seventy-five minutes” for “hours”

[5] = target: integrin α5β1 (Homo sapiens, UniProt P05556+P08648); details: Lee et al. 2014; Lima et al. 2017; cited from earlier work
Sequence of integrin α5β1 (P08648 42-1049): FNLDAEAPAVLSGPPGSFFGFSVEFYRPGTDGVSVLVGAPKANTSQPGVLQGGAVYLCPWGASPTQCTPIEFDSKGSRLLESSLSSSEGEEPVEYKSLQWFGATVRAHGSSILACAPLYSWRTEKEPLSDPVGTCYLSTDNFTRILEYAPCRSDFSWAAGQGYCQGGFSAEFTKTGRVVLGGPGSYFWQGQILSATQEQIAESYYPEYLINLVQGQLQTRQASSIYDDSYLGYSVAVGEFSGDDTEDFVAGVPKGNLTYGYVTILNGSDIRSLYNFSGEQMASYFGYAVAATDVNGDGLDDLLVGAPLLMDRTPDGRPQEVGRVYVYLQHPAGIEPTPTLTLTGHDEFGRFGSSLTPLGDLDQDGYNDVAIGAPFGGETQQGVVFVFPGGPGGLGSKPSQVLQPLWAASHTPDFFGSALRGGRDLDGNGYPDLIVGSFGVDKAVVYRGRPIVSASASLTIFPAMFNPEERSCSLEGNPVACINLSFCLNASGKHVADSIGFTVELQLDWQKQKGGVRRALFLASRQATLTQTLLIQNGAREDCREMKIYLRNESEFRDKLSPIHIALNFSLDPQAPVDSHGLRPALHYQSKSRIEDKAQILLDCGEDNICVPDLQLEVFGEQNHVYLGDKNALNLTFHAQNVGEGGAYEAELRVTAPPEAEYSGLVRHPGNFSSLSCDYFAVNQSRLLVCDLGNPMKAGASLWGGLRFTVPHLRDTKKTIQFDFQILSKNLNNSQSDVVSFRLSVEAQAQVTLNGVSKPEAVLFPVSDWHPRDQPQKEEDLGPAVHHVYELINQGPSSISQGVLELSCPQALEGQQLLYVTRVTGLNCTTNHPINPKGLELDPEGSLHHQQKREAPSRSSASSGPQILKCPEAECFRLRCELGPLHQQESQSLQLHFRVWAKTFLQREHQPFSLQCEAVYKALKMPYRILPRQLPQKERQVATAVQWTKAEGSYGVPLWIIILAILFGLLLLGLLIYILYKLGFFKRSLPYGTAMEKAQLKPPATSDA
Sequence of integrin α5β1 (P05556 21-798): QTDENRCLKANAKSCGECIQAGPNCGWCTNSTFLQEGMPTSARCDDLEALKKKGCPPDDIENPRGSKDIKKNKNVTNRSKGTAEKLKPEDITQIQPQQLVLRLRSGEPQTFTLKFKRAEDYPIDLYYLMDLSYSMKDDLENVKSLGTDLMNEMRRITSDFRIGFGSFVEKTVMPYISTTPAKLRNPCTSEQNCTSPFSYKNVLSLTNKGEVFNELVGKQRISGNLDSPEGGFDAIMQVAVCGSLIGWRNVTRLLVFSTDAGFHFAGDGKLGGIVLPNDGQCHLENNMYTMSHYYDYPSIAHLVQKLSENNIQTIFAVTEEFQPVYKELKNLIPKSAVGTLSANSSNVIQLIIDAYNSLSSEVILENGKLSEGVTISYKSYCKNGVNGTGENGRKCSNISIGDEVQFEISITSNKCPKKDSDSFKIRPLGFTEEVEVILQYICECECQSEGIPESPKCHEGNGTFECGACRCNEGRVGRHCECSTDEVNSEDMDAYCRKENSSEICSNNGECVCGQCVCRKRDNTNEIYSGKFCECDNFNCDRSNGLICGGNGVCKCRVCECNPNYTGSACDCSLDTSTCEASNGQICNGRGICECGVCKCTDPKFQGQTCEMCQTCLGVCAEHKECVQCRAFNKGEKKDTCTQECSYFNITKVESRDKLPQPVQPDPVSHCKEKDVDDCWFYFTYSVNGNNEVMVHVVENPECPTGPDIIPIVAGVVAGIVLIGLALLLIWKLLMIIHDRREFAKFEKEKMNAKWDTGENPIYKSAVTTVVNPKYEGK

Sequence: LRRFSTAPFAFIDINDVINF [AXT107]
- Erk1/2 phosphorylation [1]: remained constant in all tested conditions
- FITC-dextran diffusion into the top chamber ([2]; 100 μM AXT107 pre-incubation + Ang2, vs growth factor alone): significant decrease in FITC-dextran diffusion into the top chamber
- FITC-dextran diffusion into the top chamber ([2]; 100 μM AXT107 pre-incubation + Ang2 in combination with VEGF, vs growth factors alone): significant decrease in FITC-dextran diffusion into the top chamber
- FITC-dextran diffusion into the top chamber ([2]; VEGF in the presence vs absence of peptide): similar, but non-significant trend
- FITC-dextran diffusion across the monolayer, agent alone ([2]; single agent alone, FITC-Dextran 40 kDa, three hours): influenced FITC-dextran diffusion across the monolayer
- Activation of Tie2 by Ang2 in vivo [3]: potentiates the activation of Tie2 by Ang2 both in vitro and in vivo
- Phosphorylation of MLC2 [4]: reduced in a dose-dependent manner
- Binding to integrin α5β1 [5]: binds tightly
